According to ChEMBL document CHEMBL1142083, “Reversible inhibition of mitochondrial protein synthesis during linezolid-related hyperlactatemia” (2007):

Assays:
PBMC [1] = assay: Decrease in mitochondrial Cytochrome C oxidase 2 protein expression in PBMCs from patient on a long-term schedule of the drug with hyperlactatemia relative to control; assay type: functional, Homo sapiens; parameters: scale not given: the % may be the effect or the level left
PBMC [2] = assay: Increase in Cytochrome C oxidase 2 mitochondrial RNA transcripts in PBMCs from patient on a long-term schedule of the drug with hyperlactatemia relative to control; assay type: functional, Homo sapiens
PBMC [3] = assay: Effect on mitochondrial DNA level in PBMCs from patient on a long-term schedule of the drug with hyperlactatemia relative to control; assay type: functional, Homo sapiens
PBMC [4] = assay: Effect on mitochondrial mass in PBMCs from patient during hyperlactemic phase by citrate synthase method relative to control; assay type: functional, Homo sapiens
PBMC [5] = assay: Effect on mitochondrial mass in PBMCs from patient during hyperlactemic phase by V-DAC method relative to control; assay type: functional, Homo sapiens
PBMC [6] = assay: Decrease in mitochondrial Cytochrome C oxidase activity in PBMCs from patient on a long-term schedule of the drug with hyperlactatemia relative to control; parameters: scale not given: the % may be the effect or the level left

SMILES: CC(=O)NC[C@H]1CN(c2ccc(N3CCOCC3)c(F)c2)C(=O)O1 [LINEZOLID]
- Activity (PBMC [1]): 16%
- Activity (PBMC [2]): 297%
- Activity (PBMC [3]): 82%
- Activity (PBMC [4]): 59%
- Activity (PBMC [5]): 60%
- Activity (PBMC [6]): 51%
